# Values of other authors as cited in patent US8846607B2, “Particles for treatment of pulmonary infection” (President and Fellows of Harvard College, priority 2004, dated 2014).
# System: non-replicating TB
# Settings: after one month, non-replicating TB in vitro
substance,measurement,value
capreomycin,log decrease in colony forming units (CFU),one to two
